The structures appear in SMILES notation.

This data set is described as follows: pKa of the mercapto group by titration with hydrochloric acid. The data set is classed as physicochemical. The conditions noted are these: 0.002 mole/liter in water at pH 11, titrated with hydrochloric acid (0.1 mole/liter). Here is the method:
The pKa of the hydrophobizing compounds in connection with the present invention were determined according to the method described in "Ionization Constants of Acids and Bases--A Laboratory Manual" written by Adrien Albert and E. P. Serjeant and Edited by John Wiley & Sons (New York) page 110-112 (1962).
In these particular cases, the hydrophobizing compounds were dissolved in water at pH 11. The concentration of the hydrophobizing compounds was 0.002 mole/liter and the mixture was then titrated with a solution of hydrochloric acid (0.1 mole/liter).
As for `CCCCCCCc1nnc(S)o1` [2-mercapto-5-n.heptyl-oxa-3,4-diazole, reference compound], the pKa (usually the negative logarithm of the acid dissociation constant) was determined as 4.8.

`CCCCCCn1nnnc1S` [compound 3] returned a pKa of 3.4. With `CCCCCCNC(=O)Cn1nnnc1S` [compound 1] the figure was 3.3.

The values above are taken from patent US5432042A, “Method for obtaining a printing plate according to the silver salt diffusion transfer process” (Agfa-Gevaert, N.V., priority 1993, dated 1995).
